Assay results taken from patent US20110200624A1, “NOVEL PEPTIDES FOR USE IN TRANSFECTION” (MOLECULAR TRANSFER, INC., priority 2008, published 2011).

Experiments:
Assay in all cases: Transfection with β-galactosidase reporter plasmid pCMVSPORT-β-gal, β-gal activity (ONPG)
Assay type in all cases: cell-based
[1] = test system: PC12; conditions: PC12 cells; DMS lipid (1:1 DOPE), 1.0 μg plasmid DNA, 1.0 ug peptide; β-gal activity OD 405 nm
[2] = test system: HepG2; conditions: HepG2 cells; DMS lipid (1:1 DOPE), 1.0 μg plasmid DNA, 1.0 ug peptide; β-gal activity OD 405 nm
Description: (§1) Transfection of, NIH3T3, HepG2, Human Fibroblast, Jurkat and Cos-7 and with β-galactosidase reporter plasmid pCMV[…]SPORT-β-gal was carried out as follows:
(§2) Cells were plated in 96-well plates with 100 μl of media containing 10% fetal calf serum the day before transfection such that a desired confluency (70%-95%) was achieved the following day. The following day DMS lipid (1:1 DOPE) and DNA/peptide were mixed in Opti-MEM to form DNA/lipid/peptide complexes. Complexes were formed by adding various amounts of lipid (1-6 μl) to 100 μl of Opti-MEM. Plasmid DNA (1.0 μg) was added to 100 μl Opti-MEM then 1.0 ug of each peptide was added to the DNA mixture and incubated for 10 minutes. The DNA/peptide and lipids solutions were then mixed to form DNA/peptide/lipid complexes. The complexes were incubated for an additional 15 minutes. After incubation 20 μl of each of the resulting complexes was added directly to the cells in 10% serum. Cells were incubated for an additional 16-24 hours to allow expression of the plasmid. Medium was removed and the cells were lysed in 100-200 μl of lysis buffer. The lysates (20 μl) were assayed for β-gal activity using the enzymatic substrate ONPG. Total activity was determined by reading the OD at 405 nm using a Bio-Rad Benchmark Microplate Spectrophotometer.

[3] = test system: Jurkat; conditions: Jurkat cells; DMS lipid (1:1 DOPE), 1.0 μg plasmid DNA, 1.0 ug peptide; β-gal activity OD 405 nm
Description: as §1, §2

[4] = test system: Human Fibroblast; conditions: DMS lipid (1:1 DOPE), 1.0 μg plasmid DNA, 1.0 ug peptide, β-gal activity OD 405 nm
Description: as §1, §2

[5] = test system: NIH 3T3; conditions: NIH 3T3 cells; DMS lipid (1:1 DOPE), 1.0 μg plasmid DNA, 1.0 ug peptide; β-gal activity OD 405 nm
Description: as §1, §2

| Fold Ehancement over Lipid Alone [1] [Fold] | Fold Ehancement over Lipid Alone [2] [Fold] | Fold Ehancement over Lipid Alone [3] [Fold] | Fold Ehancement over Lipid Alone [4] [Fold] | Fold Ehancement over Lipid Alone [5] [Fold] | Substance |
| --- | --- | --- | --- | --- | --- |
| 2.5 | 1.2 | 4.75 | 11.7 | 1.65 | (K)16VELDSFDY [Peptide #4] |
| 1.8 | 0.97 | 4.56 | 3.7 | 1.7 | (K)16YYCDIRLRDP [Peptide #1] |
| 0.91 | 3.3 | 1.47 | 29 | 1.46 | (K)16YYCLQSMEDPYTFGG [Peptide #7] |
| 1.4 | 2.5 | 2 | 22.7 | 2.1 | (K)16YYCQQSYSTPWTFGQGTK [Peptide #10] |
| 1.6 | 2 | 1.28 | 12 | 2.5 | (K)16DYYCAAWDDSLNGYSVF [Peptide #5] |
| 2.09 | 1.3 | 4.8 | 14.5 | 0.89 | (K)16NSRDSSGIQNV [Peptide #2] |
| 0.37 | 1.6 | 1 | 19.9 | 1.86 | (K)16YYCARSDGNYGYYYALDYDY [Peptide #8] |

| Substance | Fold Ehancement over Lipid Alone [1] [Fold] | Fold Ehancement over Lipid Alone [2] [Fold] | Fold Ehancement over Lipid Alone [3] [Fold] | Fold Ehancement over Lipid Alone [4] [Fold] | Fold Ehancement over Lipid Alone [5] [Fold] |
| --- | --- | --- | --- | --- | --- |
| (K)16YYCQQRSSYPYTFGG [Peptide #6] | 1.13 | 4.2 | 1.75 | 34 | 1.93 |
| (K)16AAWDDSLGI [Peptide #3] | 2.88 | 1.9 | 4.5 | 12.9 | 1.5 |
| (K)16AARSPSYYRYDYGPYYAMDYD [Peptide #9] | 2.68 | 4.25 | 5.78 | 21.9 | 2.17 |
